Key:
Format in all cases: in vitro ADME
[1] = biological target: T1, CYP2C8 (Homo sapiens, UniProt P10632); experiment: In vitro CYP phenotyping and metabolism study, recombinant CYP2C8
T1 sequence (P10632 1-490): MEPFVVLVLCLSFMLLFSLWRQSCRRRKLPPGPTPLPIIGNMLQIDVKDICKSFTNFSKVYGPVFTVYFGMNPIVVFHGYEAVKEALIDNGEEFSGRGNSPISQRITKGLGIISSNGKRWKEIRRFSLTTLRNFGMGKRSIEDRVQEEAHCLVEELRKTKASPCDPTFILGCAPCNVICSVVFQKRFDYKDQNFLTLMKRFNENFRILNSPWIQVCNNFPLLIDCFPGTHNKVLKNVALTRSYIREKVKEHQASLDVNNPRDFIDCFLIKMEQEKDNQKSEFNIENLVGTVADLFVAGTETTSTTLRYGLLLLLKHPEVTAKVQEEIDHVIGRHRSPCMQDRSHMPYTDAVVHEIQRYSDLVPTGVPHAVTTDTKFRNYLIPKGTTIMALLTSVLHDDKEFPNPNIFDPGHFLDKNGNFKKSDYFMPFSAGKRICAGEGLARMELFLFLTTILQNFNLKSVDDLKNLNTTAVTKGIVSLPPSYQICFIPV
Protocol: (§1) Recently, an in vitro cytochrome (CYP) phenotyping and metabolism study was performed.

[2] = biological target: CYP2C19 (Homo sapiens, UniProt P33261); experiment: In vitro CYP phenotyping and metabolism study, recombinant CYP2C19
Protocol: as §1

[3] = biological target: T2, CYP1A2 (Homo sapiens, UniProt P05177); experiment: In vitro CYP phenotyping and metabolism study, recombinant CYP1A2
T2 sequence (P05177 1-516): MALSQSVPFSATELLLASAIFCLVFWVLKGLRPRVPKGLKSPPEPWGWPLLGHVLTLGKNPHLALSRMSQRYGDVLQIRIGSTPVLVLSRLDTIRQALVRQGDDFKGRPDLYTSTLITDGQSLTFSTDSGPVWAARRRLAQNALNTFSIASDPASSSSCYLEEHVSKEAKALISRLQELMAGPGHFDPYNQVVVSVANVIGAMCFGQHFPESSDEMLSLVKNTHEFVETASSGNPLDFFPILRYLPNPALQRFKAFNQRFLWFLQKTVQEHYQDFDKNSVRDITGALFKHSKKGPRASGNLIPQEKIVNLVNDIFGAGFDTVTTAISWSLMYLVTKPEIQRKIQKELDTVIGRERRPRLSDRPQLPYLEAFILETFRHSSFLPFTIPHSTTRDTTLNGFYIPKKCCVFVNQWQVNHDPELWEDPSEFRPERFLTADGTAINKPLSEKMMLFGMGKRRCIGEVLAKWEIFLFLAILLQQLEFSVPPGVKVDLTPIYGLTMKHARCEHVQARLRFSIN
Protocol: as §1

Sequence of CYP2C19 (P33261 whole entry): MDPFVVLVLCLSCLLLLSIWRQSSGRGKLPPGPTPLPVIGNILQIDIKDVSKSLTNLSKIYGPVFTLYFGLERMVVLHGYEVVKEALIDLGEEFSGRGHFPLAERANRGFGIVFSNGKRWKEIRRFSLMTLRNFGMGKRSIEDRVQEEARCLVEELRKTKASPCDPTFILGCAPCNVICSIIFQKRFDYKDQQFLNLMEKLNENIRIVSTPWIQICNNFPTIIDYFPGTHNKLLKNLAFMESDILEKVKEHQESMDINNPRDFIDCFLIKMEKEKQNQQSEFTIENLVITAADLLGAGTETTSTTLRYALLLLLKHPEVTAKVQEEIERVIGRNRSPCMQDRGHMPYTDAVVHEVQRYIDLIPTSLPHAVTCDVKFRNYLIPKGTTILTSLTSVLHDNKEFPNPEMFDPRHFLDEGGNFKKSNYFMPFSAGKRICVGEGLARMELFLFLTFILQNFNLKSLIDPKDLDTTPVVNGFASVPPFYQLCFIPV

N#CC1(c2ccc(NC(=O)c3cccnc3NCc3ccncc3)cc2)CCCC1 [Rivoceranib, N-[4-(1-cyanocyclopentyl)phenyl]-2-{[(pyridin-4-yl)methyl]amino} pyridine-3-carboxamide]
rivoceranib consumed at 60 minute incubation ([1]; CYP2C8): less than 10% | % Remaining at 60 minute incubation ([1]; Recombinant CYP2C8, 5 μM): 103% | CLINT ([1]; Recombinant CYP2C8, 5 μM): 0.037 μL/minunte/mg | half-life at 5 µM ([1]; human, Recombinant CYP2C8, 5 μM, read-out: t½): 12.6 h | rivoceranib consumed at 60 minute incubation ([2]; CYP2C19): less than 10% | % Remaining at 60 minute incubation ([2]; Recombinant CYP2C19, 5 μM): 98.9% | CLINT ([2]; Recombinant CYP2C19, 5 μM): 0.057 μL/minunte/mg | half-life at 5 µM ([2]; human, Recombinant CYP2C19, 5 μM, read-out: t½): 8.05 h | rivoceranib consumed at 60 minute incubation ([3]; CYP1A2): less than 10% | % Remaining at 60 minute incubation ([3]; Recombinant CYP1A2, 5 μM): 94.7% | CLINT ([3]; Recombinant CYP1A2, 5 μM): 0.041 μL/minunte/mg | half-life at 5 µM ([3]; human, Recombinant CYP1A2, 5 μM, read-out: t½): 11.2 h
